Measurements as given in patent US8309558B2, “Compounds for the treatment of hepatitis C” (Bristol-Myers Squibb Company, priority 2008, dated 2012).

Assays:
[1] = system: HCV replicon cells; assay: HCV replicon FRET / luciferase assay (96-well plates); type: cell-based; details: Hepatitis C virus, Table 1a; HCV replicon; read-out: EC50
Procedure, shortened: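 Replicon cells (with or without Renilla luciferase reporter) incubated with titrated compounds at 37 °C; Alamar blue read for cytotoxicity first. NS3 protease activity read kinetically with 20 μM EDANS/DABCYL FRET peptide in lysis reagent plus 150 mM NaCl (ex 340/em 490), or by Dual-Glo luciferase. EC50 = 50% signal reduction after protease-inhibitor background subtraction.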

[2] = biological target: T1, HCV NS5B RdRp genotype 1b (Hepatitis C virus genotype 1b, UniProt Q9WMX2); assay: Standard HCV NS5B RdRp enzyme assay; type: biochemical; details: Table 1a; HCV NS5B RdRp genotype 1b; read-out: IC50
T1 construct: The protein was expressed with an 18 amino acid C-terminal truncation to enhance the solubility; made in house; host or cells: E. coli BL21(DE3), pET21a vector
T1 sequence (Q9WMX2 2420-2992): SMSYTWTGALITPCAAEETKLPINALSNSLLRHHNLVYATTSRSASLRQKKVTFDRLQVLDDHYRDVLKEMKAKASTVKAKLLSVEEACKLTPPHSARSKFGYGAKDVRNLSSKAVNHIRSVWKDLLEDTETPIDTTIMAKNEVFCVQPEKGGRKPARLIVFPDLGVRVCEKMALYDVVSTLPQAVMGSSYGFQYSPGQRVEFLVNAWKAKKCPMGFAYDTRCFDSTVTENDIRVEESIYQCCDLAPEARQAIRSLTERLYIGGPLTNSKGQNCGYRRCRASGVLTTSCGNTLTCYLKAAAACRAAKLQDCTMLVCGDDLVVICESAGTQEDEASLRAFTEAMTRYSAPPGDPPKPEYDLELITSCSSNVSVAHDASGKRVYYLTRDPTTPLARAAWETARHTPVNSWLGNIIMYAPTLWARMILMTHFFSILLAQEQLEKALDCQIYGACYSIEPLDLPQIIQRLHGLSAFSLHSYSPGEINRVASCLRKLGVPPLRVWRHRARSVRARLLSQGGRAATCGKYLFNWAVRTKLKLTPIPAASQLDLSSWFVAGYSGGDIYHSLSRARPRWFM
Procedure: HCV NS5B RdRp cloning, expression, and purification. The cDNA encoding the NS5B protein of HCV, genotype 1b, was cloned into the pET21a expression vector. The protein was expressed with an 18 amino acid C-terminal truncation to enhance the solubility. The E. coli competent cell line BL21(DE3) was used for expression of the protein. Cultures were grown at 37° C. for ˜4 hours until the cultures reached an optical density of 2.0 at 600 nm. The cultures were cooled to 20° C. and induced with 1 mM IPTG. Fresh ampicillin was added to a final concentration of 50 μg/ml and the cells were grown overnight at 20° C.
Cell pellets (3 L) were lysed for purification to yield 15-24 mgs of purified NS5B. The lysis buffer consisted of 20 mM Tris-HCl, pH 7.4, 500 mM NaCl, 0.5% triton X-100, 1 mM DTT, 1 mM EDTA, 20% glycerol, 0.5 mg/ml lysozyme, 10 mM MgCl2, 15 ug/ml deoxyribonuclease I, and Complete TM protease inhibitor tablets (Roche). After addition of the lysis buffer, frozen cell pellets were resuspended using a tissue homogenizer. To reduce the viscosity of the sample, aliquots of the lysate were sonicated on ice using a microtip attached to a Branson sonicator. The sonicated lysate was centrifuged at 100,000×g for 1 hr at 4° C. and filtered through a 0.2 μm filter unit (Corning).
The protein was purified using three sequential chromatography steps: Heparin sepharose CL-6B, polyU sepharose 4B, and Hitrap SP sepharose (Pharmacia). The chromatography buffers were identical to the lysis buffer but contained no lysozyme, deoxyribonuclease I, MgC12 or protease inhibitor and the NaCl concentration of the buffer was adjusted according to the requirements for charging the protein onto the column. Each column was eluted with a NaCl gradient which varied in length from 5-50 column volumes depending on the column type. After the final chromatography step, the resulting purity of the enzyme is >90% based on SDS-PAGE analysis. The enzyme was aliquoted and stored at −80° C.
Standard HCV NS5B RdRp enzyme assay. HCV RdRp genotype 1b assays were run in a final volume of 60 μl in 96 well plates (Costar 3912). The assay buffer composed of 20 mM Hepes, pH 7.5, 2.5 mM KCl, 2.5 mM MgCl2, 1 mM DTT, 1.6 U RNAse inhibitor (Promega N2515), 0.1 mg/ml BSA (Promega R3961), and 2% glycerol. All compounds were serially diluted (3-fold) in DMSO and diluted further in water such that the final concentration of DMSO in the assay was 2%. HCV RdRp genotype 1b enzyme was used at a final concentration of 28 nM. A polyA template was used at 6 nM, and a biotinylated oligo-dT12 primer was used at 180 nM final concentration. Template was obtained commercially (Amersham 27-4110). Biotinylated primer was prepared by Sigma Genosys. 3H-UTP was used at 0.6 μCi (0.29 μM total UTP). Reactions were initiated by the addition of enzyme, incubated at 30° C. for 60 min, and stopped by adding 25 μl of 50 mM EDTA containing SPA beads (4 μg/μl, Amersham RPNQ 0007). Plates were read on a Packard Top Count NXT after >1 hr incubation at room temperature.
IC50 values for compounds were determined using seven different [I]. IC50 values were calculated from the inhibition using the formula y=A+((B−A)/(1+((C/x)^D))).

| SMILES | EC50 [1] | IC50 [2] |
| --- | --- | --- |
| CNC(=O)c1c(-c2ccc(F)cc2)oc2ccc(-c3cccc(C(=O)N(C)C(C)(C)C)c3)cc12 | < 250 nM | < 250 nM |
| CNC(=O)c1c(-c2ccc(F)cc2)oc2ccc(-c3cccc(C(=O)Nc4cc(C)nn4C)c3)cc12 | < 250 nM | < 250 nM |
| CNC(=O)c1c(-c2ccc(F)cc2)oc2ccc(-c3cccc(C(=O)NCc4cccc(O)c4)c3)cc12 | < 250 nM | 250 to 1000 nM |
| CNC(=O)c1c(-c2ccc(F)cc2)oc2ccc(-c3cccc(C(=O)NCCC(C)(C)C)c3)cc12 | < 250 nM | < 250 nM |
| CNC(=O)c1c(-c2ccc(F)cc2)oc2ccc(-c3ccc(CO)cc3)cc12 | 250 to 1000 nM | > 10000 nM |
| CNC(=O)c1cccc(-c2ccc3oc(-c4ccc(F)cc4)c(C(=O)NC)c3c2)c1 | 250 to 1000 nM | 1000 to 10000 nM |
| CCNC(=O)c1cccc(-c2ccc3oc(-c4ccc(F)cc4)c(C(=O)NC)c3c2)c1 | 250 to 1000 nM | 250 to 1000 nM |
| CCCCNC(=O)c1cccc(-c2ccc3oc(-c4ccc(F)cc4)c(C(=O)NC)c3c2)c1 | < 250 nM | < 250 nM |
| CNC(=O)c1c(-c2ccc(F)cc2)oc2ccc(-c3cccc(C(=O)NCCC#N)c3)cc12 | 250 to 1000 nM | 250 to 1000 nM |
| CNC(=O)c1c(-c2ccc(F)cc2)oc2ccc(-c3cccc(C(=O)N(C)CC(C)C)c3)cc12 | 250 to 1000 nM | < 250 nM |
| CNC(=O)c1c(-c2ccc(F)cc2)oc2ccc(-c3cccc(C(=O)Nc4ccnn4C)c3)cc12 | 250 to 1000 nM | 250 to 1000 nM |
| CNC(=O)c1c(-c2ccc(F)cc2)oc2ccc(-c3cccc(C(=O)NCc4cnc(C)cn4)c3)cc12 | 250 to 1000 nM | 250 to 1000 nM |
| CNC(=O)c1c(-c2ccc(F)cc2)oc2ccc(-c3cccc(C(=O)NCCc4cccs4)c3)cc12 | 250 to 1000 nM | 250 to 1000 nM |
| CCOCCNC(=O)c1cccc(-c2ccc3oc(-c4ccc(F)cc4)c(C(=O)NC)c3c2)c1 | 250 to 1000 nM | < 250 nM |
| CNC(=O)c1c(-c2ccc(F)cc2)oc2ccc(-c3cccc(C(=O)NCC4CCOCC4)c3)cc12 | 250 to 1000 nM | < 250 nM |
| CNC(=O)c1c(-c2ccc(F)cc2)oc2ccc(-c3cccc(C(=O)NCc4nccs4)c3)cc12 | 250 to 1000 nM | 250 to 1000 nM |
| CNC(=O)c1c(-c2ccc(F)cc2)oc2ccc(-c3cccc(C(=O)NC4CC4)c3)cc12 | 250 to 1000 nM | 250 to 1000 nM |
| CNC(=O)c1c(-c2ccc(F)cc2)oc2ccc(-c3cccc(C(=O)N4CCc5ccccc54)c3)cc12 | 250 to 1000 nM | 1000 to 10000 nM |
| CNC(=O)c1c(-c2ccc(F)cc2)oc2ccc(-c3cccc(C(=O)NCc4ccncc4)c3)cc12 | 250 to 1000 nM | < 250 nM |
| CNC(=O)c1c(-c2ccc(F)cc2)oc2ccc(-c3cccc(C(=O)NCC4CCCO4)c3)cc12 (centres unmarked) | 250 to 1000 nM | < 250 nM |
| CNC(=O)c1c(-c2ccc(F)cc2)oc2ccc(-c3cccc(C(=O)N4CCCC4)c3)cc12 | 250 to 1000 nM | 250 to 1000 nM |
| CNC(=O)c1c(-c2ccc(F)cc2)oc2ccc(-c3cccc(C(=O)NCC4CCCCC4)c3)cc12 | 250 to 1000 nM | < 250 nM |

| SMILES | EC50 [1] | IC50 [2] |
| --- | --- | --- |
| CNC(=O)c1c(-c2ccc(F)cc2)oc2ccc(-c3cccc(C(=O)N4CCC4)c3)cc12 | 250 to 1000 nM | 250 to 1000 nM |
| CNC(=O)c1c(-c2ccc(F)cc2)oc2ccc(-c3cccc(C(=O)NCc4ccccn4)c3)cc12 | 250 to 1000 nM | < 250 nM |
| CNC(=O)c1c(-c2ccc(F)cc2)oc2ccc(-c3cccc(C(=O)NCc4cccnc4)c3)cc12 | 250 to 1000 nM | < 250 nM |
| CNC(=O)c1c(-c2ccc(F)cc2)oc2ccc(-c3cccc(C(=O)Nc4nc(C)cs4)c3)cc12 | 250 to 1000 nM | < 250 nM |
| CNC(=O)c1c(-c2ccc(F)cc2)oc2ccc(-c3ccc(C(=O)NC(C)(C)C)cc3)cc12 | 250 to 1000 nM | 1000 to 10000 nM |
| CNC(=O)c1c(-c2ccc(F)cc2)oc2ccc(-c3ccc(C(=O)NCC(C)C)cc3)cc12 | 250 to 1000 nM | > 10000 nM |
| CNC(=O)c1c(-c2ccc(F)cc2)oc2ccc(-c3ccc(C(=O)N(C)CCc4ccccn4)cc3)cc12 | < 250 nM | < 250 nM |
| CNC(=O)c1c(-c2ccc(F)cc2)oc2ccc(-c3cccc(C(=O)Nc4ccncn4)c3)cc12 | 250 to 1000 nM | 250 to 1000 nM |
| CNC(=O)c1c(-c2ccc(F)cc2)oc2ccc(-c3cccc(C(=O)Nc4cccc(C)c4)c3)cc12 | 250 to 1000 nM | 250 to 1000 nM |
| CCOC(=O)CC(C)NC(=O)c1cccc(-c2ccc3oc(-c4ccc(F)cc4)c(C(=O)NC)c3c2)c1 (centres unmarked) | 250 to 1000 nM | < 250 nM |
| CNC(=O)c1c(-c2ccc(F)cc2)oc2ccc(-c3cccc(C(=O)NC(CC(C)C)C(N)=O)c3)cc12 (centres unmarked) | 250 to 1000 nM | 250 to 1000 nM |
| CNC(=O)c1c(-c2ccc(F)cc2)oc2ccc(-c3cccc(C(=O)NC(C)(C)CC(C)=O)c3)cc12 | 250 to 1000 nM | 250 to 1000 nM |
| CCn1nccc1NC(=O)c1cccc(-c2ccc3oc(-c4ccc(F)cc4)c(C(=O)NC)c3c2)c1 | 250 to 1000 nM | 250 to 1000 nM |
| CNC(=O)c1c(-c2ccc(F)cc2)oc2ccc(-c3cccc(C(=O)N[C@H]4CCC[C@H]4C(N)=O)c3)cc12 | 250 to 1000 nM | 250 to 1000 nM |
| CNC(=O)c1c(-c2ccc(F)cc2)oc2ccc(-c3cccc(C(=O)NC(CCO)c4ccccc4)c3)cc12 (centres unmarked) | 250 to 1000 nM | < 250 nM |
| CNC(=O)c1c(-c2ccc(F)cc2)oc2ccc(-c3cccc(C(=O)N[C@@H]4CCc5ccc(O)cc54)c3)cc12 | 250 to 1000 nM | > 1390 nM |
| CNC(=O)c1c(-c2ccc(F)cc2)oc2ccc(-c3cccc(C(=O)Nc4ccnc(C)c4)c3)cc12 | 250 to 1000 nM | 1000 to 10000 nM |
| CNC(=O)c1c(-c2ccc(F)cc2)oc2ccc(-c3cccc(C(=O)NC(C)c4cccnc4)c3)cc12 (centres unmarked) | 250 to 1000 nM | < 250 nM |
| CNC(=O)c1c(-c2ccc(F)cc2)oc2ccc(-c3cccc(C(=O)N4CCC[C@H]4C(=O)N(C)C)c3)cc12 | 250 to 1000 nM | 250 to 1000 nM |
| CNC(=O)c1c(-c2ccc(F)cc2)oc2ccc(-c3cccc(C(=O)N4CCCC4c4ccccn4)c3)cc12 (centres unmarked) | 250 to 1000 nM | 250 to 1000 nM |
| CNC(=O)c1c(-c2ccc(F)cc2)oc2ccc(-c3cccc(C(=O)NC(C)CCc4ccccc4)c3)cc12 (centres unmarked) | 250 to 1000 nM | 250 to 1000 nM |
